Structures are written as SMILES.

In general, inhibition refers to the percentage by which the read-out fell short of the control. High values mean a strong effect, low ones a weak effect.

The target in this test is T1, HCMV polymerase (Human cytomegalovirus, UniProt P08546).
T1 construct: made in house; host or cells: SF-9 insect cells infected with recombinant baculovirus
T1 sequence (P08546 whole entry): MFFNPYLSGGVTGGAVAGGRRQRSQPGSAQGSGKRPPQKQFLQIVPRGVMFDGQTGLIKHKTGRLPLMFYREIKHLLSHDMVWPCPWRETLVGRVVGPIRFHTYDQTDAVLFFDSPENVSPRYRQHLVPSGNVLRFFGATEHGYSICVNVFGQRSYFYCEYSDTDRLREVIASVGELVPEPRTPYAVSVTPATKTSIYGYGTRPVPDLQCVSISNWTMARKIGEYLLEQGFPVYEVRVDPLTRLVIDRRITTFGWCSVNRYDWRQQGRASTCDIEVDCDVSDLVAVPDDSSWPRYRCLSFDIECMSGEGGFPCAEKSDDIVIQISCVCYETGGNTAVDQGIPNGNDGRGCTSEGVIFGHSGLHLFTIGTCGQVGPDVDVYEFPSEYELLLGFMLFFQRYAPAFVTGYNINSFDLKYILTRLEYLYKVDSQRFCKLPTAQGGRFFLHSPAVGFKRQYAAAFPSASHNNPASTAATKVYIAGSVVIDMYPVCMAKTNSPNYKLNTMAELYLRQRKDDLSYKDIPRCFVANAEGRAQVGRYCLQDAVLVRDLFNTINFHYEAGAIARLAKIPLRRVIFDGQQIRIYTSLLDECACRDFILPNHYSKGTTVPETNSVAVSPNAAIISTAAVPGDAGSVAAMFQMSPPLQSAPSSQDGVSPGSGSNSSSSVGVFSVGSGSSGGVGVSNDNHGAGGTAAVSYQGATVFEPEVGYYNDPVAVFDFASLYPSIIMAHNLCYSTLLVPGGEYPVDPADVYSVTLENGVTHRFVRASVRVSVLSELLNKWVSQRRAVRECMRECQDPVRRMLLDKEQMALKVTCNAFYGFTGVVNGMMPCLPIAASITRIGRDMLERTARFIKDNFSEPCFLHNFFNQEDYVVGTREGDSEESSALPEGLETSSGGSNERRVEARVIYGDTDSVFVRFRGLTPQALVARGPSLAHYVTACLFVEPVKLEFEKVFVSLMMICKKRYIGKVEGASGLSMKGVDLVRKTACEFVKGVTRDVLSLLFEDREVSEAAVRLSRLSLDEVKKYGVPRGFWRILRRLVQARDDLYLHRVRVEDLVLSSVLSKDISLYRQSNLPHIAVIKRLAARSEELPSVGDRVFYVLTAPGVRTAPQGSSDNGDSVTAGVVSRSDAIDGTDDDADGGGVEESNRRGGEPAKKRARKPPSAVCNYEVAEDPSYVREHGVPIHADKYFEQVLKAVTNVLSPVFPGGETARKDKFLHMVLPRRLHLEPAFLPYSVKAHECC
Nature of the test: HCMV polymerase assay (scintillation proximity assay). The format is biochemical. The following applies: percentage of inhibition at 25 μM concentration in CMV polymerase assay. The method, boiled down: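 Values are percent inhibition at 25 μM, measured by scintillation proximity after capture of biotinylated poly(dA)-oligo(dT) (6 nM) extended with 90 nM 3H-dTTP. Recombinant SF-9-derived enzyme reacted 30 min at 25 or 37 °C in HEPES pH 7.5/KCl/MgCl2/BSA buffer, ±2 mM CHAPS, before EDTA termination.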
In turn, `COc1ccccc1C(=O)Nc1nnc(NC[C@@H]2CCC3CC2C3(C)C)s1` (stereo partly drawn) [compound 22, N-[5-({[(2R)-6,6-dimethylbicyclo[3.1.1]hept-2-yl]methyl}amino)-1,3,4-thiadiazol-2-yl]-2-methoxybenzamide] gave an inhibition at 25 µM of 97.2%.
`O=C(Nc1nnc(NC2CCc3ccccc32)s1)c1ccc([N+](=O)[O-])o1` (stereo not shown) [compound 404, N-[5-(2,3-dihydro-1H-inden-1-ylamino)-1,3,4-thiadiazol-2-yl]-5-nitro-2-furamide]: at 25 µM the inhibition was 25.2%.
In turn, `CC(=O)NCCNc1nnc(NC(=O)c2ccc3c(c2)C(=O)OC3=O)s1` [compound 258, N-(5-{[2-(acetylamino)ethyl]amino}-1,3,4-thiadiazol-2-yl)-1,3-dioxo-1,3-dihydro-2-benzofuran-5-carboxamide] came in with an inhibition at 25 µM of 39.7%.
For the compound `O=C(Nc1nnc(NCC2CCCO2)s1)c1cc2ccccc2s1` (stereo not shown) [compound 405, N-{5-[(tetrahydro-2-furanylmethyl)amino]-1,3,4-thiadiazol-2-yl}-1-benzothiophene-2-carboxamide], testing at 25 µM gave an inhibition of 25%.
On the same count and under the same terms, to `COc1ccccc1C(=O)Nc1nnc(NCCCNC2CCCCC2)s1` [compound 387, N-(5-{[3-(cyclohexylamino)propyl]amino}-1,3,4-thiadiazol-2-yl)-2-methoxybenzamide] belongs 26.8%.
Still for that read-out and setting: the figure for `O=C(Nc1nnc(NCCCNC2CCCCC2)s1)c1ccc(I)cc1` [compound 212, N-(5-{[3-(cyclohexylamino)propyl]amino}-1,3,4-thiadiazol-2-yl)-4-iodobenzamide] is 44.2%; for `O=C(/C=C/c1ccccc1Cl)Nc1nnc(NCC2CCCCC2)s1` [compound 439, (E)-3-(2-chlorophenyl)-N-{5-[(cyclohexylmethyl)amino]-1,3,4-thiadiazol-2-yl}-2-propenamide] it is 22.5%.
`O=C(Nc1nnc(NCCSc2ccccc2)s1)c1ccc2c(c1)C(=O)OC2=O` [compound 33, 1,3-dioxo-N-(5-{[2-(phenylsulfanyl)ethyl]amino}-1,3,4-thiadiazol-2-yl)-1,3-dihydro-2-benzofuran-5-carboxamide]: 25 µM produced 90.1% inhibition.
Consider `Cc1ccc(C(=O)Nc2nnc(NCCCNC3CCCCC3)s2)cc1` [compound 162, N-(5-{[3-(cyclohexylamino)propyl]amino}-1,3,4-thiadiazol-2-yl)-4-methylbenzamide], for which the inhibition at 25 µM was 51.8%.
`Cc1ccc(C(=O)Nc2nnc(NCc3ccc4c(c3)OCO4)s2)cc1` [compound 181, N-{5-[(1,3-benzodioxol-5-ylmethyl)amino]1,3,4-thiadiazol-2-yl}-4-methylbenzamide] displayed an inhibition at 25 µM of 48.3%.
The compound `O=C(Nc1nnc(NCc2ccc(F)cc2)s1)c1ccc2c(c1)C(=O)OC2=O` [compound 7, N-{5-[(4-fluorobenzyl)amino]-1,3,4-thiadiazol-2-yl}-1,3-dioxo-1,3-dihydro-2-benzofuran-5-carboxamide] came in with an inhibition at 25 µM of 99.8%.
Still for that read-out and setting: the figure for `Cc1ccc(C(=O)Nc2nnc(NCc3cccc4ccccc34)s2)cc1` [compound 457, 4-methyl-N-{5-[(1-naphthylmethyl)amino]-1,3,4-thiadiazol-2-yl}benzamide] is 20.7%; for `O=C(/C=C/c1ccccc1Cl)Nc1nnc(NCCc2cccs2)s1` [compound 185, (E)-3-(2-chlorophenyl)-N-(5-{[2-(2-thienyl)ethyl]amino}-1,3,4-thiadiazol-2-yl)-2-propenamide] it is 47.6%.
`CCCCCCCCCCCNc1nnc(NC(=O)/C=C/c2ccccc2Cl)s1` [compound 216, (E)-3-(2-chlorophenyl)-N-[5-(undecylamino)-1,3,4-thiadiazol-2-yl]-2-propenamide] had an inhibition at 25 µM of 43.9%.
On the same count and under the same terms, the figure for `O=C(Nc1nnc(NC2CCCc3ccccc32)s1)c1ccc2c(c1)C(=O)OC2=O` (stereo not shown) [compound 21, 1,3-dioxo-N-[5-(1,2,3,4-tetrahydro-1-naphthalenylamino)-1,3,4-thiadiazol-2-yl]-1,3-dihydro-2-benzofuran-5-carboxamide] is 97.4%.
The compound `O=C(/C=C/c1ccccc1)Nc1nnc(NC2CCCCCC2)s1` [compound 274, (E)-N-[5-(cycloheptylamino)-1,3,4-thiadiazol-2-yl]-3-phenyl-2-propenamide] yielded an inhibition at 25 µM of 38.1%.
Turning to `CC(C)(C)OC(=O)CCNc1nnc(NC(=O)c2ccc3c(c2)C(=O)OC3=O)s1` [compound 340, tert-butyl 3-[(5-{[(1,3-dioxo-1,3-dihydro-2-benzofuran-5-yl)carbonyl]amino}-1,3,4-thiadiazol-2-yl)amino]propanoate], the inhibition at 25 µM came to 31.5%.
For the compound `CCCCCCCC/C=C/CCCCCCCC(=O)Nc1nnc(NCCCN2CCN(C)CC2)s1` [compound 14, (E)-N-(5-{[3-(4-methylpiperazino)propyl]amino}-1,3,4-thiadiazol-2-yl)-9-octadecenamide], 25 µM produced 99% inhibition.
With `CC(C)c1cc(C(C)C)c(C(=O)Nc2nnc(NCC(c3ccccc3)c3ccccc3)s2)c(C(C)C)c1` [compound 176, N-{5-[(2,2-diphenylethyl)amino]-1,3,4-thiadiazol-2-yl}-2,4,6-triisopropylbenzamide], testing at 25 µM gave an inhibition of 49.4%.
On to `O=C(Nc1nnc(NC2CCN(Cc3ccccc3)CC2)s1)c1ccc(S(=O)(=O)F)cc1` [compound 460, 4-[({5-[(1-benzyl-4-piperidinyl)amino]-1,3,4-thiadiazol-2-yl}amino)carbonyl]benzenesulfonyl fluoride], for which the “% Inhib” value amounted to 20.7%.
For `O=C(CCCCCl)Nc1nnc(NCc2ccc3c(c2)OCO3)s1` [compound 165, N-{5-[(1,3-benzodioxol-5-ylmethyl)amino]-1,3,4-thiadiazol-2-yl}-5-chloropentanamide], at 25 µM the inhibition was 51.3%.
`O=C(Nc1nnc(NCCC(c2ccccc2)c2ccccc2)s1)c1ccc(F)cc1F` [compound 243, N-{5-[(3,3-diphenylpropyl)amino]-1,3,4-thiadiazol-2-yl}-2,4-difluorobenzamide]: testing at 25 µM gave an inhibition of 41.1%.
Turning to `CCOc1ccc2ccccc2c1C(=O)Nc1nnc(NCCc2ccccc2)s1` [compound 270, 2-ethoxy-N-[5-(phenethylamino)-1,3,4-thiadiazol-2-yl]-1-naphthamide], testing at 25 µM gave an inhibition of 38.4%.
Still for that read-out and setting: to `O=C(Nc1nnc(NCCCCc2ccccc2)s1)c1ccc(Cl)c(Cl)c1` [compound 168, 3,4-dichloro-N-{5-[(4-phenylbutyl)amino]-1,3,4-thiadiazol-2-yl}benzamide] belongs 50.8%; to `O=C(Nc1nnc(NC2CCc3ccccc32)s1)c1cccc([N+](=O)[O-])c1` (stereo not shown) [compound 355, N-[5-(2,3-dihydro-1H-inden-1-ylamino)-1,3,4-thiadiazol-2-yl]-3-nitrobenzamide], 29.8%; to `O=C(Nc1nnc(NCCCCc2ccccc2)s1)c1c(Cl)cccc1Cl` [compound 225, 2,6-dichloro-N-{5-[(4-phenylbutyl)amino]-1,3,4-thiadiazol-2-yl}benzamide], 42.9%.
On the same count and under the same terms, to `O=C(/C=C/c1ccccc1)Nc1nnc(NC2CC2)s1` [compound 465, (E)-N-[5-(cyclopropylamino)-1,3,4-thiadiazol-2-yl]-3-phenyl-2-propenamide] belongs 20.2%; to `CCCCCCCC/C=C/CCCCCCCC(=O)Nc1nnc(NCc2cccc3ccccc23)s1` [compound 119, (E)-N-{5-[(1-naphthylmethyl)amino]-1,3,4-thiadiazol-2-yl}-9-octadecenamide], 60.6%; to `O=C(Nc1nnc(NCC(c2ccccc2)c2ccccc2)s1)c1ccc2c(c1)C(=O)OC2=O` [compound 17, N-{5-[(2,2-diphenylethyl)amino]-1,3,4-thiadiazol-2-yl}-1,3-dioxo-1,3-dihydro-2-benzofuran-5-carboxamide], 98.6%.
On the same count and under the same terms, the figure for `CCOc1ccc2ccccc2c1C(=O)Nc1nnc(NCc2ccc(OC)c(OC)c2)s1` [compound 122, N-{5-[(3,4-dimethoxybenzyl)amino]-1,3,4-thiadiazol-2-yl}-2-ethoxy-1-naphthamide] is 59.5%; for `CC(C)c1cc(C(C)C)c(C(=O)Nc2nnc(NCc3ccco3)s2)c(C(C)C)c1` [compound 442, N-{5-[(2-furylmethyl)amino]-1,3,4-thiadiazol-2-yl}-2,4,6-triisopropylbenzamide] it is 22.3%.
Take `CCCCCCCC/C=C/CCCCCCCC(=O)Nc1nnc(NCC(c2ccccc2)c2ccccc2)s1` [compound 38, (E)-N-{5-[(2,2-diphenylethyl)amino]-1,3,4-thiadiazol-2-yl}-9-octadecenamide]: testing at 25 µM gave an inhibition of 87.3%.
Still for that read-out and setting: the figure for `O=C(Nc1nnc(NC2CCN(Cc3ccccc3)CC2)s1)c1c(Cl)cccc1Cl` [compound 151, N-{5-[(1-benzyl-4-piperidinyl)amino]-1,3,4-thiadiazol-2-yl}-2,6-dichlorobenzamide] is 54%.
Take `CC(C)c1cc(C(C)C)c(C(=O)Nc2nnc(NCCc3ccc(S(N)(=O)=O)cc3)s2)c(C(C)C)c1` [compound 128, N-(5-{[4-(aminosulfonyl)phenethyl]amino}1,3,4-thiadiazol-2-yl)-2,4,6-triisopropylbenzamide]: the inhibition at 25 µM was 58.3%.
`CCOc1ccc2ccccc2c1C(=O)Nc1nnc(NCc2ccc(Cl)c(Cl)c2)s1` [compound 207, N-{5-[(3,4-dichlorobenzyl)amino]-1,3,4-thiadiazol-2-yl}-2-ethoxy-1-naphthamide] showed an inhibition at 25 µM of 44.7%.
`CCCCCCCC/C=C/CCCCCCCC(=O)Nc1nnc(NC2CCCCCC2)s1` [compound 31, (E)-N-[5-(cycloheptylamino)-1,3,4-thiadiazol-2-yl]-9-octadecenamide] displayed an inhibition at 25 µM of 91.8%.
Turning to `O=C(Nc1nnc(NC2CCCCCC2)s1)c1cccc([N+](=O)[O-])c1` [compound 201, N-[5-(cycloheptylamino)-1,3,4-thiadiazol-2-yl]-3-nitrobenzamide], testing at 25 µM gave an inhibition of 45.3%.

These data come from US6150385A, “1,3,4-thiadiazoles useful for the treatment of CMV infections” (Pharmacia & Upjohn Company, priority 1999, dated 2000).
